10 compounds from BindingDB's records for doi:10.1016/0960-894X(96)00297-1 (1996) can be followed below.

The test concerns the target Endothelin-converting enzyme 1 (Cavia porcellus). Put plainly: In vitro inhibition of phosphoramidon-sensitive membrane bound zinc metalloprotease Endothelin-converting enzyme from partially purified guinea pig lungs.

The structures appear in SMILES notation.

One may read the IC50 as the concentration needed to halve the response being measured. Low readings indicate greater potency in that assay, high ones weaker potency in that assay. As for `CC(=O)N[C@@H](Cc1ccccc1)P(=O)(O)CC1(C(=O)N[C@@H](Cc2c[nH]c3ccccc23)C(=O)O)CCCC1` [(S)-2-({1-[((R)-1-Acetylamino-2-phenyl-ethyl)-hydroxy-phosphinoylmethyl]-cyclopentanecarbonyl}-amino)-3-(1H-indol-3-yl)-propionic acid], the IC50 was found to be 600 nM.

Consider `O=C(N[C@@H](Cc1ccccc1)P(=O)(O)CC1(C(=O)N[C@@H](Cc2c[nH]c3ccccc23)C(=O)O)CCCC1)c1ccccc1` [(S)-2-({1-[((R)-1-Benzoylamino-2-phenyl-ethyl)-hydroxy-phosphinoylmethyl]-cyclopentanecarbonyl}-amino)-3-(1H-indol-3-yl)-propionic acid], for which the IC50 is 250 nM.

`O=C(N[C@@H](Cc1ccccc1)P(=O)(O)CC1(C(=O)N[C@@H](Cc2c[nH]c3ccccc23)C(=O)O)CCCC1)OCc1ccccc1` [(S)-2-({1-[((R)-1-Benzyloxycarbonylamino-2-phenyl-ethyl)-hydroxy-phosphinoylmethyl]-cyclopentanecarbonyl}-amino)-3-(1H-indol-3-yl)-propionic acid] came in with an IC50 of 190 nM.

On to `O=C(N[C@@H](Cc1ccccc1)P(=O)(O)CC1(C(=O)N[C@@H](Cc2ccc(O)cc2)C(=O)O)CCCC1)OCc1ccccc1` [(S)-2-({1-[((R)-1-Benzyloxycarbonylamino-2-phenyl-ethyl)-hydroxy-phosphinoylmethyl]-cyclopentanecarbonyl}-amino)-3-(4-hydroxy-phenyl)-propionic acid], for which inhibition was half-maximal at 120 nM (IC50).

Regarding `NC(=O)C[C@H](NC(=O)C1(CP(=O)(O)[C@H](Cc2ccccc2)NC(=O)OCc2ccccc2)CCCC1)C(=O)O` [(S)-2-({1-[((R)-1-Benzyloxycarbonylamino-2-phenyl-ethyl)-hydroxy-phosphinoylmethyl]-cyclopentanecarbonyl}-amino)-succinamic acid], the IC50 was greater than 1000 nM.

`O=C(N[C@H](Cc1ccccc1)P(=O)(O)CC1(C(=O)N[C@@H](Cc2c[nH]c3ccccc23)C(=O)O)CCCC1)OCc1ccccc1` [(S)-2-({1-[((S)-1-Benzyloxycarbonylamino-2-phenyl-ethyl)-hydroxy-phosphinoylmethyl]-cyclopentanecarbonyl}-amino)-3-(1H-indol-3-yl)-propionic acid] had an IC50 greater than 10000 nM.

`COc1ccc(C(=O)N[C@@H](Cc2ccccc2)P(=O)(O)CC2(C(=O)N[C@@H](Cc3c[nH]c4ccccc34)C(=O)O)CCCC2)cc1` [(S)-2-[(1-{Hydroxy-[(R)-1-(4-methoxy-benzoylamino)-2-phenyl-ethyl]-phosphinoylmethyl}-cyclopentanecarbonyl)-amino]-3-(1H-indol-3-yl)-propionic acid] registered a half-maximal inhibitory concentration (IC50) of 160 nM.

`CC(C)(C)C(=O)N[C@@H](Cc1ccccc1)P(=O)(O)CC1(C(=O)N[C@@H](Cc2c[nH]c3ccccc23)C(=O)O)CCCC1` [(S)-2-[(1-{[(R)-1-(2,2-Dimethyl-propionylamino)-2-phenyl-ethyl]-hydroxy-phosphinoylmethyl}-cyclopentanecarbonyl)-amino]-3-(1H-indol-3-yl)-propionic acid]: the IC50 came out at 550 nM.

Compound `NCc1ccc(C(=O)N[C@@H](Cc2ccccc2)P(=O)(O)CC2(C(=O)N[C@@H](Cc3c[nH]c4ccccc34)C(=O)O)CCCC2)cc1` [(S)-2-[(1-{[(R)-1-(4-Aminomethyl-benzoylamino)-2-phenyl-ethyl]-hydroxy-phosphinoylmethyl}-cyclopentanecarbonyl)-amino]-3-(1H-indol-3-yl)-propionic acid] had an IC50 of 90 nM.

On to `CC(C)C[C@H](NP(=O)(O)O)C(=O)N[C@@H](Cc1c[nH]c2ccccc12)C(=O)O` [(S)-3-(1H-Indol-3-yl)-2-((S)-4-methyl-2-phosphonoamino-pentanoylamino)-propionic acid], for which the IC50 was determined as 1500 nM.
